Experimental data reported in US20160272626A1, “PYRAZINE DERIVATIVES” (HOFFMANN-LA ROCHE INC., priority 2012, published 2016).
Where a name gives a salt, the structure may show the parent alone.

Key:
[1] = molecular target: T1, mouse TAAR1 (Mus musculus, UniProt Q923Y8); experiment: Radioligand binding assay on mouse TAAR1; conditions: mouse TAAR1, HEK-293 membranes, first value of cell mouse/rat
T1 construct: expressed in transfected cells; membrane preparation
Procedure: (§1) For the construction of expression plasmids the coding sequences of human, rat and mouse TAAR 1 were amplified from genomic DNA essentially as described by Lindemann et al.. The Expand High Fidelity PCR System (Roche Diagnostics) was used with 1.5 mM Mg^2+ and purified PCR products were cloned into pCR2.1-TOPO cloning vector (Invitrogen) following the instructions of the manufacturer. PCR products were subcloned into the pIRESneo2 vector (BD Clontech, Palo Alto, Calif.), and expression vectors were sequence verified before introduction in cell lines.
(§2) HEK293 cells (ATCC # CRL-1573) were cultured essentially as described by Lindemann et al. (2005). For the generation of stably transfected cell lines HEK293 cells were transfected with the pIRESneo2 expression plasmids containing the TAAR coding sequences (described above) with Lipofectamine 2000 (Invitrogen) according to the instructions of the manufacturer, and 24 hrs post transfection the culture medium was supplemented with 1 mg/ml G418 (Sigma, Buchs, Switzerland). After a culture period of about 10 d clones were isolated, expanded and tested for responsiveness to trace amines (all compounds purchased from Sigma) with the cAMP Biotrak Enzyme immunoassay (EIA) System (Amersham) following the non-acetylation EIA procedure provided by the manufacturer.
Radioligand Binding Assay on Mouse TAAR1
(§3) Membrane Preparation and Radioligand Binding.
HEK-293 cells stably expressing mouse TAAR1 were maintained at 37° C. and 5% CO2 in DMEM high glucose medium, containing fetal calf serum (10%, heat inactivated for 30 min at 56° C.), penicillin/streptomycin (1%), and 375 μg/ml geneticin (Gibco). Cells were released from culture flasks using trypsin/EDTA, harvested, washed twice with ice-cold PBS (without Ca^2+ and Mg^2+), pelleted at 1,000 rpm for 5 min at 4° C., frozen and stored at −80° C. Frozen pellets were suspended in 20 ml HEPES-NaOH (20 mM, pH 7.4) containing 10 mM EDTA and homogenized with a Polytron (PT 6000, Kinematica) at 14,000 rpm for 20 s. The homogenate was centrifuged at 48,000×g for 30 min at 4° C. Subsequently, the supernatant was removed and discarded, and the pellet resuspended in 20 ml HEPES-NaOH (20 mM, pH 7.4) containing 0.1 mM EDTA using the Polytron (20 s at 14,000 rpm). This procedure was repeated and the final pellet resuspended in HEPES-NaOH containing 0.1 mM EDTA and homogenized using the Polytron. Typically, aliquots of 2 ml membrane portions were stored at −80° C. With each new membrane batch the dissociation constant (Kd) was determined via a saturation curve. The TAAR1 radioligand ^3[H]—(S)-4-[(ethyl-phenyl-amino)-methyl]-4,5-dihydro-oxazol-2-ylamine (described in WO 2008/098857) was used at a concentration equal to the calculated Kd value, that was usually around 0.7 nM, resulting in the binding of approximately 0.5% of the radioligand and a specific binding representing approximately 70% of the total binding. Nonspecific binding was defined as the amount of ^3[H]—(S)-4-[(ethyl-phenyl-amino)-methyl]-4,5-dihydro-oxazol-2-ylamine bound in the presence of 10 μM unlabeled ligand. All compounds were tested at a broad range of concentrations (10 pM to 10 μM) in duplicates. The test compounds (20 μl/well) were transferred into a 96 deep well plate (TreffLab), and 180 μl of HEPES-NaOH (20 mM, pH 7.4) containing MgCl2 (10 mM) and CaCl2 (2 mM) (binding buffer), 300 μl of the radioligand ^3[H]—(S)-4-[(ethyl-phenyl-amino)-methyl]-4,5-dihydro-oxazol-2-ylamine at a concentration of 3.3×Kd in nM and 500 μl of the membranes (resuspended at 60 μg protein per ml) added. The 96 deep well plates were incubated for 1 hr at 4° C. Incubations were terminated by rapid filtration through Unifilter-96 plates (Packard Instrument Company) and glass filters GF/C (Perkin Elmer) presoaked for 1 hr in polyethylenimine (0.3%) and washed 3 times with 1 ml of cold binding buffer. […]

[2] = molecular target: T2, rat TAAR1 (Rattus norvegicus, UniProt Q923Y9); experiment: Radioligand binding assay on rat TAAR1; conditions: rat TAAR1, HEK-293 membranes, second value of cell mouse/rat
T2 construct: expressed in transfected cells; membrane preparation
T2 sequence (Q923Y9 whole entry): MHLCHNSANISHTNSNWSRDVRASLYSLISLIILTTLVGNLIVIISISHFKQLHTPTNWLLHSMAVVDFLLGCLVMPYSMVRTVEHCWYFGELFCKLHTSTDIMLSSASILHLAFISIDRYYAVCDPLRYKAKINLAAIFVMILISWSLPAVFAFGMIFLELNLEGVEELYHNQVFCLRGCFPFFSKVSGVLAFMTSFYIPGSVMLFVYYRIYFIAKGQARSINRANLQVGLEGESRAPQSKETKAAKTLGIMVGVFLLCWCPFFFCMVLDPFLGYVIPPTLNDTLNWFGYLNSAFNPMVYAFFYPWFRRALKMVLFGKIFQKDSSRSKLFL
Procedure: as §1, §2
Radioligand Binding Assay on Rat TAAR1
as §3
HEK-293 cells stably expressing rat TAAR1 were maintained at 37° C. and 5% CO2 in DMEM high glucose medium, containing fetal calf serum (10%, heat inactivated for 30 min at 56° C.), penicillin/streptomycin (1%), and 375 μg/ml geneticin (Gibco). Cells were released from culture flasks using trypsin/EDTA, harvested, washed twice with ice-cold PBS (without Ca^2+ and Mg^2+), pelleted at 1,000 rpm for 5 min at 4° C., frozen and stored at −80° C. Frozen pellets were suspended in 20 ml HEPES-NaOH (20 mM, pH 7.4) containing 10 mM EDTA and homogenized with a Polytron (PT 6000, Kinematica) at 14,000 rpm for 20 s. The homogenate was centrifuged at 48,000×g for 30 min at 4° C. Subsequently, the supernatant was removed and discarded, and the pellet resuspended in 20 ml HEPES-NaOH (20 mM, pH 7.4) containing 0.1 mM EDTA using the Polytron (20 s at 14,000 rpm). This procedure was repeated and the final pellet resuspended in HEPES-NaOH containing 0.1 mM EDTA and homogenized using the Polytron. Typically, aliquots of 2 ml membrane portions were stored at −80° C. With each new membrane batch the dissociation constant (Kd) was determined via a saturation curve. […] Nonspecific binding was defined as the amount of ^3[H]—(S)-4-[(ethyl-phenyl-amino)-methyl]-4,5-dihydro-oxazol-2-ylamine bound in the presence of 10 μM unlabeled ligand. All compounds were tested at a broad range of concentrations (10 pM to 10 μM) in duplicates. The test compounds (20 μl/well) were transferred into a 96 deep well plate (TreffLab), and 180 μl of HEPES-NaOH (20 mM, pH 7.4) containing MgCl2 (10 mM) and CaCl2 (2 mM) (binding buffer), 300 μl of the radioligand ^3[H]—(S)-4-[(ethyl-phenyl-amino)-methyl]-4,5-dihydro-oxazol-2-ylamine at a concentration of 3.3×Kd in nM and 500 μl of the membranes (resuspended at 50 μg protein per ml) added. The 96 deep well plates were incubated for 1 hr at 4° C. Incubations were terminated by rapid filtration through Unifilter-96 plates (Packard Instrument Company) and glass filters GF/C (Perkin Elmer) presoaked for 1 hr in polyethylenimine (0.3%) and washed 3 times with 1 ml of cold binding buffer. After addition of 45 μl of Microscint 40 (PerkinElmer) the Unifilter-96 plate was sealed and after 1 hr the […] counted using a TopCount Microplate Scintillation Counter (Packard Instrument Company).

T1 sequence (Q923Y8 whole entry): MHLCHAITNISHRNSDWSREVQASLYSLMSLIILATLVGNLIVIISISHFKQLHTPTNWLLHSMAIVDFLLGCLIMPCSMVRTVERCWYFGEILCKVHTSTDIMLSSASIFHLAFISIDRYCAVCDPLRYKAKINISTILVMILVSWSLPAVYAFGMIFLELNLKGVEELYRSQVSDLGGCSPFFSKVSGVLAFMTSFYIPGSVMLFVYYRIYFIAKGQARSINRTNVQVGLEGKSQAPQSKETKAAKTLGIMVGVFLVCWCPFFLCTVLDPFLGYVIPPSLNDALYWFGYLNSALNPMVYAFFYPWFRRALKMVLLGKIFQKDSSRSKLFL

Structure (SMILES) | Ki [1] | Ki [2]
O=C(Nc1ccc([C@@H]2CNCCO2)c(F)c1)c1cnc(C(F)(F)F)cn1 [Example 1, (R)—N-(3-Fluoro-4-(morpholin-2-yl)phenyl)-5-(trifluoromethyl)pyrazine-2-carboxamide hydrochloride] | 0.0115 µM | 0.009 µM
N#Cc1cc(NC(=O)c2cnc(C(F)(F)F)cn2)ccc1[C@@H]1CNCCO1 [Example 2, (R)—N-(3-Cyano-4-(morpholin-2-yl)phenyl)-5-(trifluoromethyl)pyrazine-2-carboxamide hydrochloride] | 0.0184 µM | 0.0186 µM
N#Cc1cc(NC(=O)c2cnc(C(F)(F)F)cn2)ccc1[C@H]1CNCCO1 [Example 3, (S)—N-(3-Cyano-4-(morpholin-2-yl)phenyl)-5-(trifluoromethyl)pyrazine-2-carboxamide hydrochloride] | 0.0204 µM | 1.09 µM
N#Cc1cc(NC(=O)c2cncc(C(F)(F)F)n2)ccc1[C@@H]1CNCCO1 [Example 4, (R)—N-(3-Cyano-4-(morpholin-2-yl)phenyl)-6-(trifluoromethyl)pyrazine-2-carboxamide hydrochloride] | 0.0833 µM | 0.0344 µM
O=C(Nc1ccc([C@H]2CNCCO2)c(F)c1)c1cncc(C(F)(F)F)n1 [Example 5, (S)—N-(3-Fluoro-4-(morpholin-2-yl)phenyl)-6-(trifluoromethyl)pyrazine-2-carboxamide hydrochloride] | 0.038 µM | 0.054 µM
O=C(Nc1ccc([C@@H]2CNCCO2)c(F)c1)c1cncc(C(F)(F)F)n1 [Example 6, (R)—N-(3-Fluoro-4-(morpholin-2-yl)phenyl)-6-(trifluoromethyl)pyrazine-2-carboxamide hydrochloride] | 0.0328 µM | 0.0197 µM
COc1cncc(C(=O)Nc2ccc([C@@H]3CNCCO3)c(F)c2)n1 [Example 7, (R)—N-(3-Fluoro-4-(morpholin-2-yl)phenyl)-6-methoxypyrazine-2-carboxamide hydrochloride] | 0.147 µM | 0.068 µM
COc1cnc(C(=O)Nc2ccc([C@@H]3CNCCO3)c(F)c2)cn1 [Example 8, (R)—N-(3-Fluoro-4-(morpholin-2-yl)phenyl)-5-methoxypyrazine-2-carboxamide hydrochloride] | 0.0107 µM | 0.0476 µM
COc1cncc(C(=O)Nc2ccc([C@H]3CNCCO3)c(F)c2)n1 [Example 9, (S)—N-(3-Fluoro-4-(morpholin-2-yl)phenyl)-6-methoxypyrazine-2-carboxamide hydrochloride] | 0.0314 µM | 0.247 µM
COc1cnc(C(=O)Nc2ccc([C@H]3CNCCO3)c(F)c2)cn1 [Example 10, (S)—N-(3-Fluoro-4-(morpholin-2-yl)phenyl)-5-methoxypyrazine-2-carboxamide hydrochloride] | 0.0136 µM | 0.54 µM
O=C(Nc1ccc([C@H]2CNCCO2)c(F)c1)c1cnc(OCC2CCC2)cn1 [Example 11, (S)-5-(Cyclobutylmethoxy)-N-(3-fluoro-4-(morpholin-2-yl)phenyl)pyrazine-2-carboxamide hydrochloride] | 0.0046 µM | 0.0119 µM
O=C(Nc1ccc([C@H]2CNCCO2)c(F)c1)c1cnc(OCC2CC2)cn1 [Example 12, (S)-5-(Cyclopropylmethoxy)-N-(3-fluoro-4-(morpholin-2-yl)phenyl)pyrazine-2-carboxamide hydrochloride] | 0.0045 µM | 0.04 µM
CCOc1cnc(C(=O)Nc2ccc([C@H]3CNCCO3)c(F)c2)cn1 [Example 13, (S)-5-Ethoxy-N-(3-fluoro-4-(morpholin-2-yl)phenyl)pyrazine-2-carboxamide hydrochloride] | 0.0041 µM | 0.11 µM
O=C(Nc1ccc([C@H]2CNCCO2)c(F)c1)c1cnc2ccccc2n1 [Example 14, (S)—N-(3-Fluoro-4-(morpholin-2-yl)phenyl)quinoxaline-2-carboxamide hydrochloride] | 0.0028 µM | 0.0222 µM
Cc1ccc2ncc(C(=O)Nc3ccc([C@H]4CNCCO4)c(F)c3)nc2c1 [Example 15, 7-Methyl-quinoxaline-2-carboxylic acid ((S)-3-fluoro-4-morpholin-2-yl-phenyl)-amide hydrochloride] | 0.0068 µM | 0.0131 µM
O=C(Nc1ccc([C@H]2CNCCO2)c(F)c1)c1cnc(N2CC(F)(F)C2)cn1 [Example 16, 5-(3,3-Difluoro-azetidin-1-yl)-pyrazine-2-carboxylic acid ((S)-3-fluoro-4-morpholin-2-yl-phenyl)-amide hydrochloride] | 0.0193 µM | 0.191 µM
O=C(Nc1ccc([C@@H]2CNCCO2)c(F)c1)c1cnc(C2CC2)cn1 [Example 17, 5-Cyclopropyl-pyrazine-2-carboxylic acid ((R)-3-fluoro-4-morpholin-2-yl-phenyl)-amide hydrochloride] | 0.0072 µM | 0.0076 µM
O=C(Nc1ccc([C@H]2CNCCO2)c(F)c1)c1cnc(C2CC2)cn1 [Example 18, 5-Cyclopropyl-pyrazine-2-carboxylic acid ((S)-3-fluoro-4-morpholin-2-yl-phenyl)-amide hydrochloride] | 0.0036 µM | 0.0625 µM
O=C(Nc1ccc([C@H]2CNCCO2)cc1F)c1cnc(C2CC2)cn1 [Example 19, (S)-5-Cyclopropyl-N-(2-fluoro-4-(morpholin-2-yl)phenyl)pyrazine-2-carboxamide] | 0.0061 µM | 0.235 µM
O=C(Nc1ccc([C@@H]2CNCCO2)cc1F)c1cnc(C2CC2)cn1 [Example 20, (R)-5-Cyclopropyl-N-(2-fluoro-4-(morpholin-2-yl)phenyl)pyrazine-2-carboxamide] | 0.0099 µM | 0.0708 µM
